Where only a bound is given, the exact number is not on record here.

We go through 19 compounds from patent US20250136595A1, “ACYLATED HETEROCYCLIC QUINAZOLINE DERIVATIVES AS INHIBITORS OF ERBB2” (Enliven Inc., priority 2022, published 2025).

In test [1] the target is Ba/F3 ERBB2 YVMA (Homo sapiens, UniProt P04626, DUP772-775, cells depend on it). Put plainly: Cell viability assay (CellTiter Glo) in Ba/F3 cells engineered to express ERBB2 YVMA. The format is cell-based, mouse. The following applies: Ba/F3 cells expressing human ERBB2 YVMA mutant, 72 hours, % viability, read-out: Ba/F3 ERBB2 YVMA IC50. In short, it runs like this:
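IL-3-independent mouse Ba/F3 line stably transduced with human ERBB2 YVMA, seeded at 3000 cells/well, exposed to serially diluted compound (≤0.1% DMSO) for 72 h at 37° C. ATP read by CellTiter Glo luminescence, normalised to DMSO and media-only controls; sigmoidal nonlinear regression fit.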
(In general: Cellular ATP, detected with luciferase, serves as a proxy for viable cell number.)

Test [2] deals with T1, phosphorylated EGFR (pEGFR) (Homo sapiens, UniProt P00533).
T1 construct: performed to measure phosphorylated EGFR levels using A431 cells; endogenous in cells; host or cells: A431
T1 sequence (P00533 25-1210): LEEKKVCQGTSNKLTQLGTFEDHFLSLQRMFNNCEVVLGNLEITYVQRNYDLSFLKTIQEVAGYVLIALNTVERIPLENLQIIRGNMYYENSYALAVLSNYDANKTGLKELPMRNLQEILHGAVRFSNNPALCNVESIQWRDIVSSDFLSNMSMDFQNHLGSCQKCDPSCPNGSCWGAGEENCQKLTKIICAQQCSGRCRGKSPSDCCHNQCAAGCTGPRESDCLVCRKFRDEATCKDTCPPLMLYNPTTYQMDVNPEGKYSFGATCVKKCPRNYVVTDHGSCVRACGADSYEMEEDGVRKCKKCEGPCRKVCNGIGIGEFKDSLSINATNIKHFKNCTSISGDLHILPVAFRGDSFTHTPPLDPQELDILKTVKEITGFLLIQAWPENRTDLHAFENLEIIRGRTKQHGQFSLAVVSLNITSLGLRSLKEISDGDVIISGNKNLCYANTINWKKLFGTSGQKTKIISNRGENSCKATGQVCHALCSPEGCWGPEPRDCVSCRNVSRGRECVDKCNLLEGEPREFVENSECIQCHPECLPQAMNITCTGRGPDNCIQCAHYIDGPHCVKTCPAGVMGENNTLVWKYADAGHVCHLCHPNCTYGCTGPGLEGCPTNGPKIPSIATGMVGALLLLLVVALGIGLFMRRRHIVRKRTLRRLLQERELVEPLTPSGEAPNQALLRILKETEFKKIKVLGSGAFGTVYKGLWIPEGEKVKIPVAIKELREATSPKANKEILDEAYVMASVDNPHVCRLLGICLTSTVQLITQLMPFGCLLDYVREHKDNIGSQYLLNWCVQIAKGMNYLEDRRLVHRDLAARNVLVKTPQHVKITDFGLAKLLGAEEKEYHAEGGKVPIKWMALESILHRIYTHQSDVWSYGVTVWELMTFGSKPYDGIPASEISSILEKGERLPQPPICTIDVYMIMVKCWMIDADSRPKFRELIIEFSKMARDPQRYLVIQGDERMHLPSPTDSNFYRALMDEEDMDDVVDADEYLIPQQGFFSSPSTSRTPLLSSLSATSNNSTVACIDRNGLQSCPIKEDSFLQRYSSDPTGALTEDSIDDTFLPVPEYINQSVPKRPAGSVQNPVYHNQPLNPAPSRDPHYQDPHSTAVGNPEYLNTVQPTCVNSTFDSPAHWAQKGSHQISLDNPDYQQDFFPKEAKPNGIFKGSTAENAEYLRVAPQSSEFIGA
Put plainly: Detection of phosphorylated EGFR (pEGFR) in EGF-stimulated A431 cells (AlphaLISA). The test is classed as cell-based. The conditions noted are these: A431 cells (10% FBS), 4 hours incubation, EGF 30 ng/mL for 10 minutes. The method in brief: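 Cells in 10% FBS treated with compound 4 h at 37° C., then stimulated 10 min with 30 ng/mL EGF, lysed, and pEGFR measured by AlphaLISA. Inhibition normalized to DMSO and staurosporine controls; IC50 from four-parameter logistic fit.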

In test [3] the target is T2, phosphorylated ERBB2 (pERBB2) (Homo sapiens, UniProt P04626).
T2 construct: endogenous in cells; host or cells: BT-474
T2 sequence (P04626 23-1255): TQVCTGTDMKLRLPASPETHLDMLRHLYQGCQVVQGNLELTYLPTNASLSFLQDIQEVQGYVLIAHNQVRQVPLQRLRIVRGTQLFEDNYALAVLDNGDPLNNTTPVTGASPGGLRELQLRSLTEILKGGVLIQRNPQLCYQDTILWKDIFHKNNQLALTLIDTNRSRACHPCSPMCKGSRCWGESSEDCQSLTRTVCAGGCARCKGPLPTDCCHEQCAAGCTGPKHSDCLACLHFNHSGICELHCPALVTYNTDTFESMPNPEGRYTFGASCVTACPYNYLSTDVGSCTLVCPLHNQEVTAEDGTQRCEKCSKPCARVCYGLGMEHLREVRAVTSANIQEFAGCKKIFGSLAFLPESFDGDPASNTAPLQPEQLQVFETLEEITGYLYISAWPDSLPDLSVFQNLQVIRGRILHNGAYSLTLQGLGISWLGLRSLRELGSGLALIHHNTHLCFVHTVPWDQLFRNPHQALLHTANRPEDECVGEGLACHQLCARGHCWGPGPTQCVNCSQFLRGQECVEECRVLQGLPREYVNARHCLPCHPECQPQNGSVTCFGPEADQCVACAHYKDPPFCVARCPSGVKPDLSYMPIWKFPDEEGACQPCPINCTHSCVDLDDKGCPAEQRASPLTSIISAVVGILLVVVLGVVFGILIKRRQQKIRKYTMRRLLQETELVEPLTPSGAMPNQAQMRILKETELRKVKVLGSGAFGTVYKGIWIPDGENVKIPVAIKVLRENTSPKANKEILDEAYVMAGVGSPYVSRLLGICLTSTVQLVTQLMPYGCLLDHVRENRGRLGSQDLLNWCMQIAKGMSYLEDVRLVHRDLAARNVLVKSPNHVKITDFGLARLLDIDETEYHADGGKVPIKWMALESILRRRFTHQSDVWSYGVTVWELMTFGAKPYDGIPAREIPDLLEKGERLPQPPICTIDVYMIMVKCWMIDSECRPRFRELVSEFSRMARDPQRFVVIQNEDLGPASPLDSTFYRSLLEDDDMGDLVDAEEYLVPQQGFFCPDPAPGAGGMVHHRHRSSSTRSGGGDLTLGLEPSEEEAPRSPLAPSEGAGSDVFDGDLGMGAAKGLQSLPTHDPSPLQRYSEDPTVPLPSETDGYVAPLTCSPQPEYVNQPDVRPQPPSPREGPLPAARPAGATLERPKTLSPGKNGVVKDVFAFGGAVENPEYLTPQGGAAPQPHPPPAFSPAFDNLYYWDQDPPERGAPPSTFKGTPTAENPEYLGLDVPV
Put plainly: Detection of phosphorylated ERBB2 (pERBB2) by ELISA in BT-474 cells. The format is cell-based. The conditions noted are these: four hour incubation with compound. In short, it runs like this: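 BT-474 cells treated 4 h at 37 °C, 5% CO2 with four-fold dilutions (10 μM to 0.01 nM final). Lysates analysed by ELISA for pERBB2, TMB read at OD 450 nm. % relative activity normalised to no-cell (low) and 0.1% DMSO-treated (high) controls.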

Sequence of Ba/F3 ERBB2 YVMA (P04626 with tags, fused parts or gaps DUP772-775): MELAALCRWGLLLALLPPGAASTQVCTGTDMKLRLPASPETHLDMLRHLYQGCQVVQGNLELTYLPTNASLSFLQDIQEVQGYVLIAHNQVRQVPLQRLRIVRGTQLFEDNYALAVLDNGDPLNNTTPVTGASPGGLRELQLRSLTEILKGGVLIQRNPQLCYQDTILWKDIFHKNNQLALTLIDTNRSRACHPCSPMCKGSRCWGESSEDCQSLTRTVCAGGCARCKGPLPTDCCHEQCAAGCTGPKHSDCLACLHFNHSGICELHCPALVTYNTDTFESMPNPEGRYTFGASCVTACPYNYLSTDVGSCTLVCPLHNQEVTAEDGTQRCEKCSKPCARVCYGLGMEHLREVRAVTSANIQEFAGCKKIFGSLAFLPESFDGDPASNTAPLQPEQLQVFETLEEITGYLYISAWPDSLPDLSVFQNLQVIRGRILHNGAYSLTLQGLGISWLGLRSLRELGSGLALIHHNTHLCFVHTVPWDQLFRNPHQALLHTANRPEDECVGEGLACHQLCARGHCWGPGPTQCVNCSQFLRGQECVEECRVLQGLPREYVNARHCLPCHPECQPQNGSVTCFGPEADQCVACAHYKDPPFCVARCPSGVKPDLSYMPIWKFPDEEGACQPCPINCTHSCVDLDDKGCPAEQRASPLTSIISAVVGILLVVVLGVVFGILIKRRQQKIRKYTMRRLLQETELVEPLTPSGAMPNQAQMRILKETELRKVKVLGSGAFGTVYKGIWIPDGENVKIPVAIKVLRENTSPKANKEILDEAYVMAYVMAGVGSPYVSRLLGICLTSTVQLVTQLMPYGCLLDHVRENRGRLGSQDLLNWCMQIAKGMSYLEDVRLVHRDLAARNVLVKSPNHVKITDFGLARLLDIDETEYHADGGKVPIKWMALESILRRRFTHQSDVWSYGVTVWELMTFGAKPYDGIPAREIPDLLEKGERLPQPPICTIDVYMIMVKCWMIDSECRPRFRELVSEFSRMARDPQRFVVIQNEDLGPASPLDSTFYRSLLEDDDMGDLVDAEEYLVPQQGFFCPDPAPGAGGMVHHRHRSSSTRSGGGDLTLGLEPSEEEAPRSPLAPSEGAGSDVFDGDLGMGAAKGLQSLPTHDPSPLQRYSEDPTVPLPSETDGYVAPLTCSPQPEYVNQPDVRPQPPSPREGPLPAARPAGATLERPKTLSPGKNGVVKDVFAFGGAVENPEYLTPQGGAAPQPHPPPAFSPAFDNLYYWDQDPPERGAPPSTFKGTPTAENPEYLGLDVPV

As a reminder, the IC50 is the concentration that gives 50% inhibition. With `C=CC(=O)N1CCN(c2cc3c(Nc4ccc(Cc5ccn6ncnc6c5)c(C)c4)ncnc3cn2)C[C@H]1C` [Compound 52, (R)-1-(4-(4-((4-([1,2,4]triazolo[1,5-a]pyridin-7-ylmethyl)-3-methylphenyl)amino)pyrido[3,4-d]pyrimidin-6-yl)-2-methylpiperazin-1-yl)prop-2-en-1-one], the GI50 in test [1] is 120 nM. For the same compound, the 50% inhibitory concentration (IC50) in test [2] is more than 10000 nM; in test [3] it was 50.6 nM.

Take `C=CC(=O)N1CCN(c2ccc3ncnc(Nc4ccc(Cc5ccc6c(c5)ncn6C)c(C)c4)c3n2)C[C@H]1C` [Compound 53, 1-[(2R)-2-methyl-4-[4-({3-methyl-4-[(1-methyl-1,3-benzodiazol-5-yl)methyl]phenyl}amino)pyrido[3,2-d]pyrimidin-6-yl]piperazin-1-yl]prop-2-en-1-one]: the GI50 in test [1] stood at 14 nM. In addition, the IC50 was 1460 nM in test [2] and 35.4 nM in test [3].

On to `C=CC(=O)N1CCN(c2ccc3ncnc(Nc4ccc(Cc5ccc6c(c5)ncn6C)c(C)c4)c3c2)C[C@H]1C` [Compound 54, 1-[(2R)-2-methyl-4-[4-({3-methyl-4-[(1-methyl-1,3-benzodiazol-5-yl)methyl]phenyl}amino)quinazolin-6-yl]piperazin-1-yl]prop-2-en-1-one], for which the GI50 in test [1] was 48.2 nM. Moreover, the IC50 in test [2] was determined as 2420 nM; in test [3] it was 21.9 nM.

`C=CC(=O)N1CCN(c2cc3c(Nc4ccc(Oc5ccn6ncnc6c5)c(C)c4)ncnc3cn2)C[C@H]1C` [Compound 55, 1-[(2R)-2-methyl-4-{4-[(3-methyl-4-{[1,2,4]triazolo[1,5-a]pyridin-7-yloxy}phenyl)amino]pyrido[3,4-d]pyrimidin-6-yl}piperazin-1-yl]prop-2-en-1-one]: the GI50 in test [1] came out at 18.5 nM. Moreover, the IC50 in test [2] was 2580 nM; in test [3] it was 12 nM.

With `C=CC(=O)N1CCN(c2ncc3ncnc(Nc4ccc(Oc5ccn6ncnc6c5)c(C)c4)c3n2)C[C@H]1C` [Compound 56, 1-[(2R)-2-methyl-4-{8-[(3-methyl-4-{[1,2,4]triazolo[1,5-a]pyridin-7-yloxy}phenyl)amino]pyrimido[5,4-d][1,3]diazin-2-yl}piperazin-1-yl]prop-2-en-1-one], the GI50 in test [1] was 7.86 nM. In addition, the IC50 in test [2] worked out at 1050 nM; in test [3], 14.8 nM.

In the case of `C=CC(=O)N1CCN(c2ncc3ncnc(Nc4ccc(Oc5ccc6c(c5)ncn6C)c(C)c4)c3n2)C[C@H]1C` [Compound 57, (R)-1-(2-methyl-4-(8-((3-methyl-4-((1-methyl-1H-benzo[d]imidazol-5-yl)oxy)phenyl)amino)pyrimido[5,4-d]pyrimidin-2-yl)piperazin-1-yl)prop-2-en-1-one], in test [1], the GI50 is 21 nM. Moreover, the IC50 is 2880 nM in test [2] and 25.8 nM in test [3].

Take `C=CC(=O)N1CCN(c2ccc3ncnc(Nc4ccc(Oc5ccc6c(c5)ncn6C)c(C)c4)c3c2)C[C@H]1C` [Compound 58, 1-[(2R)-2-methyl-4-[4-({3-methyl-4-[(1-methyl-1,3-benzodiazol-5-yl)oxy]phenyl}amino)quinazolin-6-yl]piperazin-1-yl]prop-2-en-1-one]: the GI50 in test [1] worked out at 24.1 nM. In addition, the figures for the IC50 in test [2] and in test [3] were 2460 nM and 31.4 nM, respectively.

`C=CC(=O)N1CCN(c2cc3c(Nc4ccc(Oc5ccc6c(c5)ncn6C)c(C)c4)ncnc3cn2)C[C@H]1C` [Compound 59, 1-[(2R)-2-methyl-4-[4-({3-methyl-4-[(1-methyl-1,3-benzodiazol-5-yl)oxy]phenyl}amino)pyrido[3,4-d]pyrimidin-6-yl]piperazin-1-yl]prop-2-en-1-one]: the GI50 in test [1] was 27.4 nM. Moreover, the IC50 is 3800 nM in test [2] and 20.1 nM in test [3].

Consider `C=CC(=O)N1[C@H](C)CN(c2ccc3ncnc(Nc4ccc(Oc5ccn6ncnc6c5)c(C)c4)c3n2)C[C@@H]1C` [Compound 60, 1-(cis-4-(4-((4-([1,2,4]triazolo[1,5-a]pyridin-7-yloxy)-3-methylphenyl)amino)pyrido[3,2-d]pyrimidin-6-yl)-2,6-dimethylpiperazin-1-yl)prop-2-en-1-one], for which the GI50 in test [1] was found to be 14.3 nM. Also, the IC50 worked out at 3780 nM in test [2] and 23.7 nM in test [3].

In the case of `C=CC(=O)N1[C@H](C)CN(c2ccc3ncnc(Nc4ccc(Oc5ccn6ncnc6c5)c(C)c4)c3n2)C[C@H]1C` [Compound 61, 1-[(2R,6R)-2,6-dimethyl-4-{4-[(3-methyl-4-{[1,2,4]triazolo[1,5-a]pyridin-7-yloxy}phenyl)amino]pyrido[3,2-d]pyrimidin-6-yl}piperazin-1-yl]prop-2-en-1-one], the GI50 in test [1] was more than 500 nM. The IC50 in test [2] is more than 10000 nM; in test [3] it was 254 nM.

For the compound `C=CC(=O)N1CCN(c2ccc3ncnc(Nc4ccc(Cc5ccn6ncnc6c5)c(C)c4)c3c2F)C[C@H]1C` [Compound 62, 1-[(2R)-4-{5-fluoro-4-[(3-methyl-4-{[1,2,4]triazolo[1,5-a]pyridin-7-ylmethyl}phenyl)amino]quinazolin-6-yl}-2-methylpiperazin-1-yl]prop-2-en-1-one], the GI50 in test [1] is 22.7 nM. Besides, the half-inhibitory concentration (IC50) in test [2] was more than 10000 nM; in test [3], 46.9 nM.

Consider `C=CC(=O)N1CCN(c2ccc3ncnc(Nc4ccc(Oc5ccn6ncnc6c5)c(C)c4)c3c2F)C[C@H]1C` [Compound 63, (R)-1-(4-(4-((4-([1,2,4]triazolo[1,5-a]pyridin-7-yloxy)-3-methylphenyl)amino)-5-fluoroquinazolin-6-yl)-2-methylpiperazin-1-yl)prop-2-en-1-one], for which the GI50 in test [1] came to 10.5 nM. In addition, the IC50 in test [2] worked out at 5500 nM; in test [3] it was 21.4 nM.

As for `C=CC(=O)N1CCN(c2ccc3ncnc(Nc4ccc(Oc5ccc6c(c5)ncn6C)c(C)c4)c3c2F)C[C@H]1C` [Compound 64, 1-[(2R)-4-[5-fluoro-4-({3-methyl-4-[(1-methyl-1,3-benzodiazol-5-yl)oxy]phenyl}amino)quinazolin-6-yl]-2-methylpiperazin-1-yl]prop-2-en-1-one], the GI50 in test [1] came out at 12.4 nM. The IC50 is 2520 nM in test [2] and 38.6 nM in test [3].

Consider `CC#CC(=O)N1CCN(c2ccc3ncnc(Nc4ccc(Oc5ccc6c(c5)ncn6C)c(C)c4)c3n2)C[C@H]1C` [Compound 65, 1-[(2R)-2-methyl-4-[4-({3-methyl-4-[(1-methyl-1,3-benzodiazol-5-yl)oxy]phenyl}amino)pyrido[3,2-d]pyrimidin-6-yl]piperazin-1-yl]but-2-yn-1-one], for which, in test [1], the GI50 was 4.38 nM. Besides, the IC50 was 2790 nM in test [2] and 29.3 nM in test [3].

Take `C=CC(=O)N1CCN(c2ccc3ncnc(Nc4ccc(Cc5ccn6ncnc6c5)c(C)c4)c3n2)[C@@H](C)C1` [Compound 66, (S)-1-(4-(4-((4-([1,2,4]triazolo[1,5-a]pyridin-7-ylmethyl)-3-methylphenyl)amino)pyrido[3,2-d]pyrimidin-6-yl)-3-methylpiperazin-1-yl)prop-2-en-1-one]: the GI50 in test [1] amounted to 12.5 nM. Also, the IC50 stood at 9020 nM in test [2] and 18 nM in test [3].

With `C=CC(=O)N1CCN(c2ccc3ncnc(Nc4ccc(Oc5ccc6c(c5)ncn6C)c(C)c4)c3n2)[C@@H](C)C1` [Compound 67, 1-[(3S)-3-methyl-4-[4-({3-methyl-4-[(1-methyl-1,3-benzodiazol-5-yl)oxy]phenyl}amino)pyrido[3,2-d]pyrimidin-6-yl]piperazin-1-yl]prop-2-en-1-one], in test [1], the GI50 is 13.9 nM. The IC50 is 2490 nM in test [2] and 28.2 nM in test [3].

On to `C=CC(=O)N1CCN(c2ccc3ncnc(Nc4ccc(Cc5ccc6c(c5)ncn6C)c(C)c4)c3n2)[C@@H](C)C1` [Compound 68, (S)-1-(3-methyl-4-(4-((3-methyl-4-((1-methyl-1H-benzo[d]imidazol-5-yl)methyl)phenyl)amino)pyrido[3,2-d]pyrimidin-6-yl)piperazin-1-yl)prop-2-en-1-one], for which the GI50 in test [1] was determined as 14.7 nM. The IC50 in test [2] was determined as 2570 nM; in test [3], 44.8 nM.

Turning to `C=CC(=O)N1CCN(c2cc3c(Nc4ccc(Oc5ccn6ncnc6c5)c(C)c4)ncnc3cn2)[C@@H](C)C1` [Compound 69, (S)-1-(4-(4-((4-([1,2,4]triazolo[1,5-a]pyridin-7-yloxy)-3-methylphenyl)amino)pyrido[3,4-d]pyrimidin-6-yl)-3-methylpiperazin-1-yl)prop-2-en-1-one], the GI50 in test [1] came to 155 nM. The half-inhibitory concentration (IC50) in test [2] was more than 10000 nM; in test [3], 59.6 nM.

In the case of `C=CC(=O)N1CCN(c2ncc3ncnc(Nc4ccc(Oc5ccn6ncnc6c5)c(C)c4)c3n2)[C@@H](C)C1` [Compound 70, 1-[(3S)-3-methyl-4-{8-[(3-methyl-4-{[1,2,4]triazolo[1,5-a]pyridin-7-yloxy}phenyl)amino]pyrimido[5,4-d][1,3]diazin-2-yl}piperazin-1-yl]prop-2-en-1-one], the GI50 in test [1] was 9.96 nM. Also, the figures for the IC50 in test [2] and in test [3] were 2320 nM and 16.3 nM, respectively.
